According to patent US5492906A, “Derivatives of thieno-triazolo-diazepine and therapeutic compositions containing them” (Societe de Conseils de Recherches et d'Applications …, priority 1989, dated 1996):

Legend:
[1] = tested on: bronchospasm induced by the PAF; experiment: Action on the bronchospasm induced by the PAF in anaesthetized guinea-pigs; type: in vivo, guinea-pig; settings: male Hartley guinea-pigs, oral, 1 hour before PAF i.v.
Description: 3) Action on the bronchospasm induced by the PAF
The PAF intravenous injection in anaesthetized guinea-pigs induces a bronchoconstriction with a leucopeny and a thrombocytopeny, according to the method described in S. DESQUAND, C. TOUVAY, J. RANDON, V. LAGENTE, B. VILAIN, I. MARIDONNEAU-PARINI, A. ETIENNE, J. LEFORT, P. BRAQUET and B. VARGAFTIG. Interference of BN 52021 (Ginkolide B) with the bronchopulmonary effects of PAF-acether in the guinea-pig. Eur. J. Pharmacol. 127: 83-95, 1986.
Male Hartley guinea-pigs (400-450 g) (Charles River) anaesthetized with urethane (2 g/kg IP), then are thracheotomized and submitted to a forced respiration with a breathing pump:70-80 strokes/mn, 1 ml of air/ 100 g per stroke. A catheter is introduced in the jugular vein for the injections, an other is introduced in the carotic artery for blood takings. The initial resistance is kept constant under the pressure of 10 cm of water in accordance with the Konzett and Rossler method and the air in excess is measured with a transducor for bronchospasm UGO BASILE together with an enregistror GEMINI. The guinea-pigs had received an IV injection of pancuronium (Pavulon) to inhibit their spontaneous respiration.
The compound according to the invention and the reference compound WEB 2086 (see the above cited Boehringer patent) have been prepared as suspension in gummy water and administrated orally 1 hour before the stimulation by the PAF.
The bronchoconstriction is appreciated by the calculation of the percentage of bronchoconstriction [formula] wherein A stands for induced bronchoconstriction in mm and B stands for maximum bronchoconstriction in mm.

[2] = tested on: platelet agregation induced by PAF; experiment: Inhibition of platelet agregation induced by PAF; type: cell-based, New Zealand rabbits; settings: Oryctolagus cuniculus, New Zealand rabbit platelets, agregometer at 57° C., Table I
Protocol: 1) Inhibition of platelet agregation induced by PAF
This experimentation was conducted according to the method of R. KINLOUGH. RATHBONE, J. P. CAZENAVE, M. PACKHAM and F. MUSTARD, Lab. Invest. 48, 98, 1980. In this test, New Zealand rabbits were used (male New Zealand rabbits of an average weight of 5 kg).
The determinations are made on a chrono-log Coultronics agregometer, at […] coupled with a graphic recorder; the results of these determinations (in molecular concentration) are reported on the table I on the central column.

benzodiazepine receptors = experiment: Inhibition of the binding to benzodiazepine receptors (rat brains); settings: rat brains incubated 1 h 30 at 4° C.; 3H-RO-15-4788 and 3H-RO-5-4864 as tracers; Table I; read-out: BDZ receptors (inhibition of the binding to benzodiazepine receptors)
Description: 2) Inhibition of the binding to benzodiazepine receptors
The interest of the previous experimentation depends on the results obtained in this experimentation: as a compound of the invention has a benzodiazepine like structure, it is important to check whether the specific benzodiazepine activity would not appear at the dose where platelet agregation was inhibited.
Therefore, this experimentation has been conducted according to the method of MOHLER H. and RICHARD J. G. Agonist and antagonist benzodiazepine receptor intereaction in vitro, Nature, vol. 294, 763°-765, 1981.
This experimentation was conducted on rat brains incubated 1 h 30 at 4° C. using ^3 H-RO-15-4788 and ^3 H-RO-5-4864 (NEN) as tracers and […] and RO-5-4864 as reference antagonists.
The results in molecular concentration are reported in the table I, on the right hand column.

Toxicity on the mice = settings: mouse, in vivo, IP route

Cc1nnc2n1-c1sc3c(c1C(c1ccccc1Cl)=NC2)CCN(C(=S)NS(=O)(=O)c1ccc[nH]1)C3 [Example 33, 6-(2-chlorophenyl)-9-(2-pyrrolylsulfonyl)thiocarbamoyl7,8,9,10-tetrahydro-1-methyl-4H-pyrido[4',3':4,5]thieno[3,2-f]1,2,4-triazolo[4,3-a]1,4-diazepine]
Percentage of action ([1]; change versus controls): -71.7%
Percentage of bronchoconstriction ([1]; controls 79. ± 5.55, dose not given): 22.4%
IC50 [2]: 0.205 µM
IC50 (benzodiazepine receptors): 9.1 µM
LD50 (Toxicity on the mice): 400 to 1000 mg/kg
